The target in test [1] is T1, orphan receptor Singlet_413 (Homo sapiens, UniProt Q8TDS5).
T1 construct: expressed in transfected cells
Put plainly: Ligand fishing: transient Ca2+ signal (Flipr384, Fluo-4) in CHO-K1-CRE cells stably transfected with Singlet_413. The class given is cell-based. The conditions noted are these: not primed. Here is the method:
(§1) Twenty-four hours before the experiment, the cells are havested, counted and seeded in 384-well plates at 10000 cells per wells and put at 37° C./5% CO2. The day of the experiment, the injection plates containing the compounds are prepared as described in the following table:
(§2) The cells are loaded with 2 μM Fluo-4 in HBSS/Hepes buffer. After one hour incubation at 37° C./5% CO2, the cells are washed with HBSS/Hepes containing 2.5 mM probenecid (2 wash cycles+volume adjustment are performed). Plates that will be primed with ATP are adjusted to 20 μl final volume and plates that will directly receive the compounds are adjusted to 40 μl final volume. Four assay plates are primed with 20 μl ATP at 20 μM initial (10 μM final concentration) and are incubated at room temperature for 30 minutes. Compounds plates at 3 times the final concentration are then injected with the Flipr pipettor on both primed and not primed plates. The Flipr laser is setup on 0.6 watt, the exposure length at 0.4 sec. […] A 10 seconds baseline is recorded prior compounds injection. After the injection, the signal is recorded every second for one minute. Then, signal decay is measured for 20 additional seconds. Two statistics are exported: Fbasal and Fmax. For each well, a dF/F value is expressed with the following formula: (Fmax−Fbasal)/Fbasal is the basal fluorescence prior compound injection and Fmax is the peak value of the kinetic.

Another test has as its system CHO-K1-ATCC cells. As to the kind of experiment: Selectivity check: Ca2+ signal (Flipr) in wild type CHO-K1-ATCC cells. The conditions noted are these: for dF/F (Fmax−Fbasal)/Fbasal, CHO-K1-ATCC, np: not primed. The class given is cell-based. Here is the method: as §1, §2
(§3) These compounds are also tested against wild type cells and other transfected cells in order to check the selectivity.

The subject of another test is CHO-K1 (CHO-CRE) cells. As to the kind of experiment: Selectivity check: Ca2+ signal (Flipr) in CHO-CRE CHO-K1 cells without receptor. The test is classed as cell-based. The conditions noted are these: not primed. How it is done: as §1, §2, §3
In another test the test system is Contig 88:1. As to the kind of experiment: Selectivity check: Ca2+ signal (Flipr) in CHO-CRE cells transfected with Contig 88:1. The class given is cell-based, human. The conditions noted are these: not primed. Here is the method:
as §1, §2, §3

T1 sequence (Q8TDS5 whole entry): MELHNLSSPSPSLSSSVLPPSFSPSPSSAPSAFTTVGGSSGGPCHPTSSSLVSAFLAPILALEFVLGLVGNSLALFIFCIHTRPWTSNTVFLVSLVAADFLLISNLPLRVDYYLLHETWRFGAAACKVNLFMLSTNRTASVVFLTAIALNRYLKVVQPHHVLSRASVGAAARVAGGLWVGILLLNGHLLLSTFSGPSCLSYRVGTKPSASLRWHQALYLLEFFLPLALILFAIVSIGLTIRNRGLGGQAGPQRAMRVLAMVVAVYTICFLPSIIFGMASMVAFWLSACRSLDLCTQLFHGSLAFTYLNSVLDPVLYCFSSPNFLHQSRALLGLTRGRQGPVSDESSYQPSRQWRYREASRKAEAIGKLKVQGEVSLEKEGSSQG

In the case of `CCCCC/C=C\C/C=C\C/C=C\C=C\[C@@H](O)CCCC(=O)O` (racemic) [Cpd 2, (±)5-HETE], in test [1], the “dF/F (Fmax−Fbasal)/Fbasal, CHO-CRE Singlet_413, np” value (shortened to “dF/F … CHO-CRE Singlet_413, np”) is recorded as 0.01. For the same compound, the “dF/F (Fmax−Fbasal)/Fbasal, CHO-K1-ATCC, np” value (“dF/F … CHO-K1-ATCC, np” below) in the test with CHO-K1-ATCC cells is reported as 0.02. The “dF/F (Fmax−Fbasal)/Fbasal, CHO-CRE CHO-K1, np” value (from here on “dF/F … CHO-CRE CHO-K1, np”) with CHO-K1 (CHO-CRE) cells is recorded as −0.05. Further, the “dF/F (Fmax−Fbasal)/Fbasal, CHO-CRE Contig 88:1, np” value (from here on “dF/F … CHO-CRE Contig 88:1, np”) with Contig 88:1 is given as 0.01.

For `CCCCCCCC/C=C\C/C=C\C=C\C(O)CCCC(=O)O` (racemic) [Cpd 4, (±)5-HETrE], the “dF/F … CHO-CRE Singlet_413, np” value in test [1] is recorded as 0.03. Also, the “dF/F … CHO-K1-ATCC, np” value in the test with CHO-K1-ATCC cells is recorded as 0.01. Also, the “dF/F … CHO-CRE CHO-K1, np” value in the test on CHO-K1 (CHO-CRE) cells was −0.01. For the same compound, the “dF/F … CHO-CRE Contig 88:1, np” value in the test with Contig 88:1 was determined as 0.01.

Turning to `CC/C=C\C/C=C\C/C=C\C/C=C\C=C\C(O)CCCC(=O)O` (racemic) [Cpd 5, (±)5-HEPE], the “dF/F … CHO-CRE Singlet_413, np” value in test [1] turned out to be 0.03. In addition, the “dF/F … CHO-K1-ATCC, np” value in the test with CHO-K1-ATCC cells is given as 0.03. The “dF/F … CHO-CRE CHO-K1, np” value in the test with CHO-K1 (CHO-CRE) cells is −0.04. The “dF/F … CHO-CRE Contig 88:1, np” value in the test with Contig 88:1 came out at 0.01.

For `CCCCC/C=C\C[C@@H](O)/C=C/C=C/C=C/[C@@H](O)CCCC(=O)O` (relative stereo) [Cpd 8, 5(S), 12(R)-DIHETE all trans], the “dF/F … CHO-CRE Singlet_413, np” value in test [1] amounted to 0.01. Besides, in the test with CHO-K1-ATCC cells, the “dF/F … CHO-K1-ATCC, np” value turned out to be 0.02. For the same compound, in the test with CHO-K1 (CHO-CRE) cells, the “dF/F … CHO-CRE CHO-K1, np” value is listed as −0.04. Also, the “dF/F … CHO-CRE Contig 88:1, np” value in the test with Contig 88:1 is reported as 0.01.

As to `CCCCC/C=C\C/C=C\C/C=C\C=C\[C@@H](O)CCCC(=O)O` [Cpd 1, 5(S)-HETE], the “dF/F … CHO-CRE Singlet_413, np” value in test [1] is recorded as 0.01. In addition, in the test with CHO-K1-ATCC cells, the “dF/F … CHO-K1-ATCC, np” value turned out to be 0.02. The “dF/F … CHO-CRE CHO-K1, np” value with CHO-K1 (CHO-CRE) cells was −0.02. The “dF/F … CHO-CRE Contig 88:1, np” value in the test with Contig 88:1 is given as 0.00.

`CCCCC/C=C\C=C\[C@@H](O)C/C=C\C/C=C\CCCC(=O)O` [Cpd 3, 11(S)-HETE]: the “dF/F … CHO-CRE Singlet_413, np” value in test [1] stood at 0.00. Also, the “dF/F … CHO-K1-ATCC, np” value with CHO-K1-ATCC cells is −0.04. Also, the “dF/F … CHO-CRE CHO-K1, np” value in the test with CHO-K1 (CHO-CRE) cells was −0.03. The “dF/F … CHO-CRE Contig 88:1, np” value with Contig 88:1 is reported as 0.00.

As to `CCCCC/C=C\C/C=C\C/C=C\C=C\[C@H](CCCC(=O)O)OO` [Cpd 6, 5(S)-HPETE], the “dF/F … CHO-CRE Singlet_413, np” value in test [1] worked out at 0.01. Moreover, in the test on CHO-K1-ATCC cells, the “dF/F … CHO-K1-ATCC, np” value worked out at 0.03. Besides, the “dF/F … CHO-CRE CHO-K1, np” value in the test with CHO-K1 (CHO-CRE) cells is reported as −0.01. The “dF/F … CHO-CRE Contig 88:1, np” value with Contig 88:1 is given as 0.00.

Consider `CCCCC/C=C\C[C@@H]1O[C@H]1C(O)/C=C\C/C=C\CCCC(=O)O` (stereo partly shown) [Cpd 7, HEPOXILIN B3], for which, in test [1], the “dF/F … CHO-CRE Singlet_413, np” value is listed as 0.02. For the same compound, in the test with CHO-K1-ATCC cells, the “dF/F … CHO-K1-ATCC, np” value was determined as 0.01. In addition, in the test with CHO-K1 (CHO-CRE) cells, the “dF/F … CHO-CRE CHO-K1, np” value is −0.01. For the same compound, the “dF/F … CHO-CRE Contig 88:1, np” value in the test on Contig 88:1 worked out at 0.00.

For `CCCCC/C=C\CC1OC1C/C=C\C/C=C\CCCC(=O)O` (stereo not shown) [Cpd 9, 11,12-EPOXYEICOSATRIENOIC ACID], the “dF/F … CHO-CRE Singlet_413, np” value in test [1] is given as 0.02. Also, in the test on CHO-K1-ATCC cells, the “dF/F … CHO-K1-ATCC, np” value was determined as 0.00. For the same compound, the “dF/F … CHO-CRE CHO-K1, np” value in the test on CHO-K1 (CHO-CRE) cells was −0.02. Further, the “dF/F … CHO-CRE Contig 88:1, np” value in the test on Contig 88:1 turned out to be 0.02.

For the compound `CCCCC/C=C\C/C=C\C/C=C\C=C\C(=O)CCCC(=O)O` [Cpd 10, 5-KETOEICOSATETRAENOIC ACID], in test [1], the “dF/F … CHO-CRE Singlet_413, np” value amounted to 0.01. Besides, the “activity (Ca2+ signal) on the non-transfected cells” value in the test with CHO-K1-ATCC cells (non-transfected cells) is “not active”. Besides, in the test with CHO-K1-ATCC cells, the “dF/F … CHO-K1-ATCC, np” value was 0.04. The “dF/F … CHO-CRE CHO-K1, np” value with CHO-K1 (CHO-CRE) cells is reported as −0.05. Also, the “dF/F … CHO-CRE Contig 88:1, np” value with Contig 88:1 is on record as 0.00.

With `CCCCC/C=C\C/C=C\C/C=C\C/C=C\CCCC(=O)OC(CO)COC(=O)CCCCCCCCCCCCCCCCC` (stereo not shown) [Cpd 11, 1-STEAROYL-2-ARACHIDONOYL-GLYCEROL], the “dF/F … CHO-CRE Singlet_413, np” value in test [1] is reported as −0.01. For the same compound, in the test on CHO-K1-ATCC cells, the “dF/F … CHO-K1-ATCC, np” value is on record as 0.01. Moreover, in the test with CHO-K1 (CHO-CRE) cells, the “dF/F … CHO-CRE CHO-K1, np” value is −0.05. Also, the “dF/F … CHO-CRE Contig 88:1, np” value with Contig 88:1 is −0.01.

For the compound `CC/C=C\C/C=C\C/C=C\C/C=C\C/C=C\CCCC(=O)O` [Cpd 12, EICOSAPENTAENOIC ACID (20:5 n-3)], the “dF/F … CHO-CRE Singlet_413, np” value in test [1] was found to be 0.05. Moreover, the “dF/F … CHO-K1-ATCC, np” value with CHO-K1-ATCC cells is reported as 0.02. Moreover, in the test on CHO-K1 (CHO-CRE) cells, the “dF/F … CHO-CRE CHO-K1, np” value was −0.04. In the test with Contig 88:1, the “dF/F … CHO-CRE Contig 88:1, np” value stood at 0.03.

As to `CCCCC/C=C\C/C=C\C/C=C\C/C=C\CCCC(=O)O` [Cpd 13, ARACHIDONIC ACID (20:4 n-6)], the “dF/F … CHO-CRE Singlet_413, np” value in test [1] was 0.03. In the test with CHO-K1-ATCC cells, the “dF/F … CHO-K1-ATCC, np” value turned out to be 0.01. Also, in the test on CHO-K1 (CHO-CRE) cells, the “dF/F … CHO-CRE CHO-K1, np” value is on record as −0.05. The “dF/F … CHO-CRE Contig 88:1, np” value in the test with Contig 88:1 was found to be 0.02.

In the case of `CCCCC/C=C\C/C=C\C/C=C\C/C=C\CCCC(=O)OC(CO)CO` [Cpd 14, 2-ARACHIDONOYLGLYCEROL], in test [1], the “dF/F … CHO-CRE Singlet_413, np” value was found to be 0.02. Further, the “dF/F … CHO-K1-ATCC, np” value with CHO-K1-ATCC cells stood at 0.00. Moreover, the “dF/F … CHO-CRE CHO-K1, np” value with CHO-K1 (CHO-CRE) cells is on record as −0.05. In the test with Contig 88:1, the “dF/F … CHO-CRE Contig 88:1, np” value came out at 0.00.

As to `OCCN(CCO)c1nc(N2CCCCC2)c2nc(N(CCO)CCO)nc(N3CCCCC3)c2n1` [Cpd 15, Dipyridamole], the “dF/F … CHO-CRE Singlet_413, np” value in test [1] is given as 0.11. Also, in the test with CHO-K1-ATCC cells, the “dF/F … CHO-K1-ATCC, np” value is 0.38. In the test with CHO-K1 (CHO-CRE) cells, the “dF/F … CHO-CRE CHO-K1, np” value was −0.04. In the test on Contig 88:1, the “dF/F … CHO-CRE Contig 88:1, np” value is listed as 0.39.

These data come from patent US20040175789A1, “G protein coupled receptors and dna sequences thereof” (priority 2003, published 2004).
